Reference: paper PMC7575490 (Investigational New Drugs, 2020)
≈ marks a conversion by molar mass, not a printed value. Values belong to the molecule of their own block, whether it stands above or below them.

Columns and labels:
[1] = cited from earlier work
[2] = Part 2 three-period crossover pharmacokinetics / relative bioavailability of A, B, C; assay type: in vivo, human
Description: This was a randomized, positive control, open, single-center study with a three-cycle crossover design in healthy Chinese subjects. […] The wash-out period was 7 days. The method employed for tablet administration was consistent with that in Part 1. […] After the suspension was comsumed by subjects,the container was rinsed with 40, 80, and 80 mL of water in turn and took them down.

EGFR = test system: EGFR; parameters: method as in PMID 27902470; settings: previous pharmacodynamic study; read-out: IC50, EGFR inhibition; cited from earlier work
ErbB2 = test system: ErbB2; parameters: method as in PMID 27902470; settings: previous pharmacodynamic study; read-out: IC50, ErbB2 inhibition; cited from earlier work
[3] = Part 1 single ascending dose pharmacokinetics in healthy Chinese subjects; settings: for AUC0-t / AUC0-∞ / Cmax / MRT0-t / MRT0-∞ / V/F / t1/2 / λz / Tmax: analyte selatinib; for AUC0-t / AUC0-∞ / Cmax / MRT0-t / MRT0-∞ / V/F / t1/2 / λz: mean ± SD; for Tmax: median (min-max)
Description: This was a single-center, randomized, double-blind, placebo-controlled, single ascending study involving healthy Chinese subjects. […] Investigators and subjects were blinded to the group allociations. Treatment identity was concealed by providing drug doses and placebo of identical appearance and in identical packageing. The starting dose was calculated according to the no observed adverse effect level (NOAEL) for animals.[[[25], [26]^] […] The starting dose should be 1/10 of the human NOAEL(i.e., starting dose was 50 or 72 mg). This dose was used as a threshold guide for dose escalations. To minimize risk while providing some inhibitory effects, 50 mg was recommended for use as the starting dose. Dose escalation was designed according to the modified-Fibonacci sequence. A total of 7 dose groups were included. […] Each group consisted of 50% males and females. In addition to the 500 mg group, 2 subjects in each group were administered a single dose of placebo, one for each gender. Only 2 subjects were initially enrolled in all dose groups. Follow-up subjects were enrolled on the premise that the drug was safely tolerated at the administration dose. When all subjects in the current dose group completed the trial and this dose was deemed as tolerable, the next dose group was initiated.
Tablets were administered with 240 mL of tap water at ambient temperature. Consumption of additional water was not permitted within 1 h before and after drug administration. Light meals were served at 4 and 10 h after each dose, with identical standardized diets provided across all dosing periods.
Blood samples were collected into heparinized vacutainer tubes and gently mixed. Thereafter,plasma was separated by centrifugation (3000 rpm at 4 °C for 10 min) within 1 h of sample collection and stored frozen at −80 °C prior to analysis.
A P value<0.05 was considered to indicate statistical significance. […] Further, the logarithm of the dose and the regression coefficient and its 95%CI were calculated.

[4] = Part 1, across single doses 50–500 mg
[5] = Part 1, single 50 mg dose of selatinib (n = 4)
[6] = Part 1, single 100 mg dose of selatinib (n = 10)
[7] = Part 1, single 200 mg dose of selatinib (n = 10)
[8] = Part 1, single 250 mg dose of selatinib (n = 8)
[9] = Part 1, single 300 mg dose of selatinib (n = 10)
[10] = Part 1, single 350 mg dose of selatinib (n = 6)
[11] = Part 1, single 500 mg dose of selatinib (n = 4)
[12] = Part 2, average bioequivalence, logarithmic transformation, single 500 mg dose, suspension B vs tablets A, analyte as labelled
[13] = Part 2, single 500 mg dose of A (selatinib ditosilate tablets), n = 6, analyte as labelled, mean ± SD
[14] = Part 2, single 500 mg dose of B (selatinib ditosilate dry suspension), n = 6, analyte as labelled, mean ± SD

- λz ([2]; Part 2, single 500 mg dose of C (lapatinib ditosylate tablets), n = 6, mean ± SD): 5.70 ± 1.26 ×10^−2 /h
- AUC0-t ([2]; male, human, in vivo, 500 mg): 5520 ± 2190 ng·h/mL
- AUC(0-inf) ([2]; male, human, in vivo, 500 mg): 5540 ± 2200 ng·h/mL
- Cmax ([2]; male, human, in vivo, 500 mg): 400 ± 144 ng/mL
- Tmax ([2]; male, human, in vivo, 500 mg): 4.0 (2.0–5.0) h
- half-life ([2]; male, human, plasma, oral, 500 mg): 12.7 ± 3.05 h
Compound: CS(=O)(=O)CCNCc1ccc(-c2ccc3ncnc(Nc4ccc(OCc5cccc(F)c5)c(Cl)c4)c3c2)o1 [lapatinib, reference compound]
- aqueous solubility [1]: 7 µg/mL (≈ 12 µM)

- mean selatinib peak plasma concentration [3, 4]: 69.4 to 494 ng/mL
- median peak time [3, 4]: 3.5 to 4.5 h
- AUC0-t [3, 5]: 969 ± 161 ng·h/mL
- AUC0-∞ [3, 5]: 983 ± 165 ng·h/mL
- Cmax [3, 5]: 69.4 ± 18.5 ng/mL
- MRT0-t [3, 5]: 15.2 ± 3.1 h
- MRT0-∞ [3, 5]: 16.4 ± 3.5 h
- V/F [3, 5]: 1193.3 ± 321.8 L
- t1/2 [3, 5]: 15.8 ± 2.98 h
- λz [3, 5]: 4.49 ± 0.788 ×10^−2 1/h
- Tmax [3, 5]: 4.0 (3.0–6.0) h
- AUC0-t [3, 6]: 2664 ± 1039 ng·h/mL
- AUC0-∞ [3, 6]: 2688 ± 1058 ng·h/mL
- Cmax [3, 6]: 178 ± 48.8 ng/mL
- MRT0-t [3, 6]: 15.9 ± 2.4 h
- MRT0-∞ [3, 6]: 16.7 ± 2.8 h
- V/F [3, 6]: 853.2 ± 279.8 L
- t1/2 [3, 6]: 14.3 ± 2.58 h
- λz [3, 6]: 4.98 ± 0.917 ×10^−2 1/h
- Tmax [3, 6]: 4.0 (4.0–6.0) h
- AUC0-t [3, 7]: 3708 ± 1465 ng·h/mL
- AUC0-∞ [3, 7]: 3735 ± 1480 ng·h/mL
- MRT0-t [3, 7]: 16.4 ± 1.7 h
- MRT0-∞ [3, 7]: 17.1 ± 1.9 h
- V/F [3, 7]: 1247.0 ± 522.4 L
- t1/2 [3, 7]: 14.0 ± 1.79 h
- λz [3, 7]: 5.01 ± 0.651 ×10^−2 1/h
- Tmax [3, 7]: 4.5 (4.0–8.0) h
- AUC0-t [3, 8]: 5319 ± 3248 ng·h/mL
- AUC0-∞ [3, 8]: 5368 ± 3274 ng·h/mL
- Cmax [3, 8]: 329 ± 211 ng/mL
- MRT0-t [3, 8]: 17.1 ± 1.5 h
- MRT0-∞ [3, 8]: 18.0 ± 1.8 h
- V/F [3, 8]: 1393.7 ± 861.8 L
- t1/2 [3, 8]: 15.3 ± 1.67 h
- λz [3, 8]: 4.58 ± 0.495 ×10^−2 1/h
- Tmax [3, 8]: 4.0 (4.0–5.0) h
- AUC0-t [3, 9]: 5904 ± 2428 ng·h/mL
- AUC0-∞ [3, 9]: 5958 ± 2461 ng·h/mL
- Cmax [3, 9]: 352 ± 147 ng/mL
- MRT0-t [3, 9]: 17.4 ± 2.3 h
- MRT0-∞ [3, 9]: 18.3 ± 2.6 h
- V/F [3, 9]: 1380.6 ± 1006.1 L
- t1/2 [3, 9]: 15.1 ± 1.09 h
- λz [3, 9]: 4.60 ± 0.334 ×10^−2 1/h
- Tmax [3, 9]: 4.5 (4.0–6.0) h
- AUC0-t [3, 10]: 7072 ± 2001 ng·h/mL
- AUC0-∞ [3, 10]: 7115 ± 1995 ng·h/mL
- Cmax [3, 10]: 494 ± 156 ng/mL
- MRT0-t [3, 10]: 16.0 ± 2.6 h
- MRT0-∞ [3, 10]: 16.7 ± 3.0 h
- V/F [3, 10]: 1059.1 ± 425.1 L
- t1/2 [3, 10]: 13.8 ± 2.19 h
- λz [3, 10]: 5.14 ± 0.765 ×10^−2 1/h
- Tmax [3, 10]: 4.5 (2.0–5.0) h
- AUC0-t [3, 11]: 7142 ± 2463 ng·h/mL
- AUC0-∞ [3, 11]: 7191 ± 2482 ng·h/mL
- Cmax [3, 11]: 486 ± 144 ng/mL
- MRT0-t [3, 11]: 15.5 ± 0.5 h
- MRT0-∞ [3, 11]: 16.2 ± 0.5 h
- V/F [3, 11]: 1650.8 ± 652.2 L
- t1/2 [3, 11]: 14.8 ± 0.152 h
- λz [3, 11]: 4.68 ± 0.0482 ×10^−2 1/h
- Tmax [3, 11]: 3.5 (2.0–5.0) h
- linearity of pharmacokinetics ([3]; dose range of 50–500 mg): conformed with linear pharmacokinetics
- B/A% of AUC0-t [2, 12]: 101.06%
- B/A% of AUC0-∞ [2, 12]: 101.09%
- B/A% of Cmax [2, 12]: 94.53%
- AUC0-t [2, 13]: 9280 ± 3800 ng·h/mL
- AUC0-∞ [2, 13]: 9400 ± 3910 ng·h/mL
- Cmax [2, 13]: 601 ± 242 ng/mL
- MRT0-∞ [2, 13]: 19.2 ± 3.16 h
- t1/2 [2, 13]: 15.6 ± 2.47 h
- λz [2, 13]: 4.52 ± 0.682 ×10^−2 /h
- Tmax ([2]; Part 2, single 500 mg dose of A (selatinib ditosilate tablets), n = 6, analyte as labelled, median (min-max)): 5.0 (4.0–6.0) h
- V/F ([2]; Part 2, single 500 mg dose of A (selatinib ditosilate tablets), n = 6, mean ± SD): 1370 ± 586 L
- AUC0-t [2, 14]: 8780 ± 1350 ng·h/mL
- AUC0-∞ [2, 14]: 8890 ± 1410 ng·h/mL
- Cmax [2, 14]: 556 ± 191 ng/mL
- MRT0-∞ [2, 14]: 18.9 ± 2.87 h
- t1/2 [2, 14]: 16.2 ± 1.87 h
- λz [2, 14]: 4.32 ± 0.453 ×10^−2 /h
- Tmax ([2]; Part 2, single 500 mg dose of B (selatinib ditosilate dry suspension), n = 6, analyte as labelled, median (min-max)): 4.5 (3.0–6.0) h
- V/F ([2]; Part 2, single 500 mg dose of B (selatinib ditosilate dry suspension), n = 6, mean ± SD): 1330 ± 192 L
Compound: C[S+]([O-])CCNCc1ccc(-c2ccc3ncnc(Nc4ccc(OCc5cccc(F)c5)c(Cl)c4)c3c2)o1 (stereo not shown) [selatinib]
